Measured values published in patent publication US7722892B2, “Compounds” (Syngenta Crop Protection, Inc., priority 2001, dated 2010).

What was measured:
[1] = tested on: LOLRI Lolium rigidum (rye grass); experiment: Glasshouse weed kill, adjuvant with fluazifop-P-butyl, track sprayer; format: in vivo; details: adjuvant 0.2% v/v, 21 days after treatment; for Mean Activity (% weed kill) LOLRI: with fluazifop-p-butyl, mean of 3 replicates and 4 rates; for ED90 LOLRI (concentration required to provide 90% weed kill): fluazifop-p-butyl rate, 200 l/ha
Description: (§1) An agrochemical composition was prepared containing 0.2% v/v of an adjuvant in a track sprayer containing fluazifop P butyl emulsified at one of four different concentrations. Weeds which had been grown to the 2.3 leaf stage were sprayed using volumes of 200 l/ha. Each sample was replicated three times. The following weed species were tested:— • AVEFA Avena fatua (wild oats) • LOLRI Lolium rigidum (rye grass) • TRZAW Triticum aestivum (wheat) • SETVI Setaria viridis (green foxtails)
(§2) Activity was measured 21 days after treatment and was compared with a standard composition containing only fluazifop-p-butyl. The concentration required to provide 90% weed kill was calculated and is given in TABLE 1 below together with the mean ED90 across the species.
(§3) Further adjuvants of the present invention were tested for activity in combination with fluzifop-p-butyl. Activity (% weed kill) was measured 21 days after treatment and is given as a mean of 3 replicates and 4 rates of fluazifop-p-butyl. All adjuvants were applied at 0.2% v/v. The results are given in Table 2 in comparison with a corresponding composition containing no adjuvant.

[2] = tested on: AVEFA Avena fatua (wild oats); experiment: as above; format: in vivo; details: adjuvant 0.2% v/v, 21 days after treatment; for Mean Activity (% weed kill) AVEFA: with fluazifop-p-butyl, mean of 3 replicates and 4 rates; for ED90 AVEFA (concentration required to provide 90% weed kill): fluazifop-p-butyl rate, 200 l/ha
Description: as §1, §2, §3

[3] = tested on: TRZAW Triticum aestivum (wheat); experiment: as above; format: in vivo; details: adjuvant 0.2% v/v, 21 days after treatment; for Mean Activity (% weed kill) TRZAW: with fluazifop-p-butyl, mean of 3 replicates and 4 rates; for ED90 TRZAW (concentration required to provide 90% weed kill): fluazifop-p-butyl rate, 200 l/ha
Description: as §1, §2, §3

[4] = tested on: SETVI Setaria viridis (green foxtails); experiment: as above; format: in vivo; details: adjuvant 0.2% v/v, 21 days after treatment; for Mean Activity (% weed kill) SETVI: with fluazifop-p-butyl, mean of 3 replicates and 4 rates; for ED90 SETVI (concentration required to provide 90% weed kill): fluazifop-p-butyl rate, 200 l/ha
Description: as §1, §2, §3

[5] = tested on: AVEFA, LOLRI, TRZAW, SETVI; experiment: Weed kill with fluazifop-P-butyl, mean across the species; format: in vivo; details: adjuvant 0.2% v/v, 21 days after treatment; for Mean Activity (% weed kill) Mean over all species: with fluazifop-p-butyl; for Mean ED90 across the species: fluazifop-p-butyl rate
Description: as §1, §2, §3

Puccinia recondita = experiment: Glasshouse disease control with azoxystrobin on inoculated barley; format: in vivo; details: adjuvant 0.5% v/v tank mix, four replicates
Description: The results quoted are the mean percentage disease control from four replicates on barley inoculated with Puccinia recondita. The adjuvant was added as a 0.5% v/v tank mix.

[6] = tested on: APESV (Apera Spica-Venti); experiment: Adjuvant with thin leaved grass herbicide (oxadiazepine pivalate ester), track sprayer; format: in vivo; details: 200 l/ha, average of two replicates
Description: (§4) The indicated adjuvants were evaluated in combination with a thin leaved grass herbicide 2,2,-dimethyl-propionic acid-8-(2,6-diethyl-4-methyl-phenyl)-9-oxo-1,2,4,5-tetrahydro-9H-pyrazolo[1,2-d][1,4,5]oxadiazepine-7-yl ester. The weeds were sprayed at the growth stages shown in the table with pesticide emulsions using a track sprayer and volumes of 200 l/ha. The adjuvants were added at 5% v/v as tank mix additives. Each result is the average of two replicates.

LOLMU = experiment: as above; format: in vivo; details: 200 l/ha, average of two replicates
Description: as §4

[7] = tested on: PHAPA (Phalaris paradoxa); experiment: as above; format: in vivo; details: 200 l/ha, average of two replicates
Description: as §4

ALOMY = experiment: as above; format: in vivo; details: 200 l/ha, average of two replicates
Description: as §4

[8] = tested on: ALOMY, APESV, AVEFA, LOLMU, PHAPA; experiment: Adjuvant with thin leaved grass herbicide, mean of all weeds; format: in vivo
Description: as §4

AVEFA = experiment: Adjuvant with thin leaved grass herbicide (oxadiazepine pivalate ester), track sprayer; format: in vivo, Avena fatua; details: 200 l/ha, average of two replicates
Description: as §4

Substance	Mean Activity (% weed kill) LOLRI [1] [%]	Mean Activity (% weed kill) AVEFA [2] [%]	Mean Activity (% weed kill) TRZAW [3] [%]	Mean Activity (% weed kill) SETVI [4] [%]	Mean Activity (% weed kill) Mean over all species [5] [%]	ED90 LOLRI (concentration required to provide 90% weed kill) [1] [g/ha]	ED90 AVEFA (concentration required to provide 90% weed kill) [2] [g/ha]	ED90 TRZAW (concentration required to provide 90% weed kill) [3] [g/ha]	ED90 SETVI (concentration required to provide 90% weed kill) [4] [g/ha]	Mean ED90 across the species [5] [g/ha]	also measured
Oleyl 20 Propylene Oxide [Oleyl 20 PO]	36.3	70.6	53.3	80.4	60						
Isostearyl (2-hexyl-dodecan-1-ol) 10 Propylene Oxide [Isostearyl 10 PO]	51.8	67.8	53.8	81.8	64						
Oleic Acid 20 Ethylene Oxide End-Capped Methyl Ether [Oleyl 20 EO Me ether]	54.9	72.3	52.1	74.6	63						
Isostearyl (2-hexyl-dodecan-1-ol) 20 Propylene Oxide [Isostearyl 20 PO]	52.5	58	37.3	80.9	57						
Oleyl 20 Ethylene Oxide End-Capped Butyl Ether [Oleyl 20E Bu Ether]	68.8	76.1	59.3	78.1	71	27.5	19.5	21.4	16.5	21.2	mean percentage disease control (Puccinia recondita; Azoxystrobin 0 mgai/l): 5.9%; mean percentage disease control (Puccinia recondita; Azoxystrobin 0.625 mgai/l (Quadris 25 SC)): 66.5%; mean percentage disease control (Puccinia recondita; Azoxystrobin 1.25 mgai/l (Quadris 25 SC)): 82.7%; mean percentage disease control (Puccinia recondita; Azoxystrobin 2.5 mgai/l (Quadris 25 SC)): 90.5%
Oleyl 10 Propylene Oxide [Oleyl 10PO]	55.9	72.6	54.3	84.6	67						APESV activity ([6]; herbicide rate 5 gai/ha): 23; APESV activity ([6]; herbicide rate 7.5 gai/ha): 89; APESV activity ([6]; herbicide rate 10 gai/ha): 98; LOLMU activity (LOLMU; herbicide rate 5 gai/ha): 33; LOLMU activity (LOLMU; herbicide rate 7.5 gai/ha): 60; LOLMU activity (LOLMU; herbicide rate 10 gai/ha): 80; PHAPA activity ([7]; herbicide rate 5 gai/ha): 23; PHAPA activity ([7]; herbicide rate 7.5 gai/ha): 98; PHAPA activity ([7]; herbicide rate 10 gai/ha): 99; ALOMY activity (ALOMY; herbicide rate 5 gai/ha): 55; ALOMY activity (ALOMY; herbicide rate 7.5 gai/ha): 70; ALOMY activity (ALOMY; herbicide rate 10 gai/ha): 92; Mean All Weeds ([8]; herbicide rate 5 gai/ha): 41; Mean All Weeds ([8]; herbicide rate 7.5 gai/ha): 83; Mean All Weeds ([8]; herbicide rate 10 gai/ha): 93; AVEFA activity (AVEFA; herbicide rate 5 gai/ha): 70; AVEFA activity (AVEFA; herbicide rate 7.5 gai/ha): 96; AVEFA activity (AVEFA; herbicide rate 10 gai/ha): 98
Oleyl 10 Ethylene Oxide End-Capped Butyl Ether [Oleyl 10 EO Bu ether]	56.5	73.3	56	85.6	68						APESV activity ([6]; herbicide rate 5 gai/ha): 53; APESV activity ([6]; herbicide rate 7.5 gai/ha): 97; APESV activity ([6]; herbicide rate 10 gai/ha): 98; LOLMU activity (LOLMU; herbicide rate 5 gai/ha): 91; LOLMU activity (LOLMU; herbicide rate 7.5 gai/ha): 98; LOLMU activity (LOLMU; herbicide rate 10 gai/ha): 93; PHAPA activity ([7]; herbicide rate 5 gai/ha): 93; PHAPA activity ([7]; herbicide rate 7.5 gai/ha): 96; PHAPA activity ([7]; herbicide rate 10 gai/ha): 99; ALOMY activity (ALOMY; herbicide rate 5 gai/ha): 53; ALOMY activity (ALOMY; herbicide rate 7.5 gai/ha): 75; ALOMY activity (ALOMY; herbicide rate 10 gai/ha): 88; Mean All Weeds ([8]; herbicide rate 5 gai/ha): 76; Mean All Weeds ([8]; herbicide rate 7.5 gai/ha): 93; Mean All Weeds ([8]; herbicide rate 10 gai/ha): 95; AVEFA activity (AVEFA; herbicide rate 5 gai/ha): 89; AVEFA activity (AVEFA; herbicide rate 7.5 gai/ha): 98; AVEFA activity (AVEFA; herbicide rate 10 gai/ha): 99
Oleyl 20 Propylene Oxide End-Capped butyl ether [Oleyl 20P Bu Ether]	46	67.4	38.8	75.9	57	48.6	23.4	32.2	19	30.8	
Oleic Acid 10 Ethylene Oxide End-Capped Methyl Ether [Oleic 10E Me Ether]	56.2	71.3	56.1	78.4	66	34.8	16.7	28.4	15.8	23.9	
Oleyl 10 Propylene Oxide End-Capped butyl ether [Oleyl 10P Bu Ether]	54.4	71.4	45.8	84.2	64	34.9	19.8	29.2	16.7	25.2	
